Reference: patent publication US12493040B2, “Cancer detection method using sense of smell of nematode” (HIROTSU BIO SCIENCE INC., priority 2013, dated 2025)

Test system: RNAi-treated eri-1 (mg366) nematodes
Experiment: RNAi screening of olfactory receptor genes: chemotaxis assay of RNAi-treated nematodes to odorants
Assay type: in vivo, Caenorhabditis elegans
Conditions: low concentration of attractant
In short: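 Chemotaxis of adult RNAi-fed eri-1 (mg366) nematodes (30–50 per test) was measured toward low (1 μl, 10^−3 or 10^−4 dilution) or high (1 and 5 μl neat) odorant doses. Knockdown: 4 days feeding on E. coli from Ahringer library with IPTG and ampicillin. Differences called by z score at ±1.96, weaker cutoff ±0.96.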

CCC(=O)C(C)=O [pentanedione]
chemotaxis index (Control nematodes): 0.49 ± 0.020 | chemotaxis index (srh-10 RNAi-treated nematodes): 0.68 | chemotaxis index (srh-11 RNAi-treated nematodes): 0.75 | chemotaxis index (srh-15 RNAi-treated nematodes): 0.44 | chemotaxis index (srh-16 RNAi-treated nematodes): 0.95 | chemotaxis index (srh-18 RNAi-treated nematodes): 0.96 | chemotaxis index (srh-19 RNAi-treated nematodes): 0.64 | chemotaxis index (srh-22 RNAi-treated nematodes): 0.42 | chemotaxis index (srh-23 RNAi-treated nematodes): 0.48 | chemotaxis index (srh-24 RNAi-treated nematodes): 0.59 | chemotaxis index (srh-25 RNAi-treated nematodes): 0.95 | chemotaxis index (srh-27 RNAi-treated nematodes): 0.27 | chemotaxis index (srh-28 RNAi-treated nematodes): 0.22 | chemotaxis index (srh-36 RNAi-treated nematodes): 0.26 | chemotaxis index (srh-37 RNAi-treated nematodes): 0.60 | chemotaxis index (srh-39 RNAi-treated nematodes): −0.24 | chemotaxis index (srh-40 RNAi-treated nematodes): 0.47 | chemotaxis index (srh-41 RNAi-treated nematodes): 0.57 | chemotaxis index (srh-44 RNAi-treated nematodes): 0.52 | chemotaxis index (srh-45 RNAi-treated nematodes): 0.26 | chemotaxis index (srh-46 RNAi-treated nematodes): 0.03 | chemotaxis index (srh-48 RNAi-treated nematodes): 0.38 | chemotaxis index (srh-49 RNAi-treated nematodes): 0.60 | chemotaxis index (srh-50 RNAi-treated nematodes): 0.53 | chemotaxis index (srh-51 RNAi-treated nematodes): 0.63 | chemotaxis index (srh-52 RNAi-treated nematodes): 0.51 | chemotaxis index (srh-55 RNAi-treated nematodes): 0.49 | chemotaxis index (srh-59 RNAi-treated nematodes): −0.14 | chemotaxis index (srh-60 RNAi-treated nematodes): 0.22 | chemotaxis index (srh-61 RNAi-treated nematodes): 0.40 | chemotaxis index (srh-67 RNAi-treated nematodes): 0.41 | chemotaxis index (srh-68 RNAi-treated nematodes): 0.21 | chemotaxis index (srh-69 RNAi-treated nematodes): 0.13 | chemotaxis index (srh-70 RNAi-treated nematodes): 0.25 | chemotaxis index (srh-71 RNAi-treated nematodes): 0.14 | chemotaxis index (srh-72 RNAi-treated nematodes): 0.29 | chemotaxis index (srh-74 RNAi-treated nematodes): 0.42 | chemotaxis index (srh-75 RNAi-treated nematodes): 0.53 | chemotaxis index (srh-77 RNAi-treated nematodes): 0.32 | chemotaxis index (srh-79 RNAi-treated nematodes): 0.53 | chemotaxis index (srh-80 RNAi-treated nematodes): 0.41 | chemotaxis index (srh-82 RNAi-treated nematodes): 0.49 | chemotaxis index (srh-83 RNAi-treated nematodes): 0.72 | chemotaxis index (srh-97 RNAi-treated nematodes): 0.74 | chemotaxis index (srh-99 RNAi-treated nematodes): 0.54 | chemotaxis index (srh-100 RNAi-treated nematodes): 0.35 | chemotaxis index (srh-104 RNAi-treated nematodes): −0.30 | chemotaxis index (srh-105 RNAi-treated nematodes): 0.27 | chemotaxis index (srh-109 RNAi-treated nematodes): 0.65 | chemotaxis index (srh-111 RNAi-treated nematodes): 0.39 | chemotaxis index (srh-113 RNAi-treated nematodes): 0.14 | chemotaxis index (srh-115 RNAi-treated nematodes): 0.39 | chemotaxis index (srh-116 RNAi-treated nematodes): 0.22 | chemotaxis index (srh-118 RNAi-treated nematodes): 0.44 | chemotaxis index (srh-119 RNAi-treated nematodes): 0.18 | chemotaxis index (srh-120 RNAi-treated nematodes): 0.80 | chemotaxis index (srh-122 RNAi-treated nematodes): 0.24 | chemotaxis index (srh-123 RNAi-treated nematodes): 0.30 | chemotaxis index (srh-125 RNAi-treated nematodes): 0.08 | chemotaxis index (srh-128 RNAi-treated nematodes): 0.49 | chemotaxis index (srh-129 RNAi-treated nematodes): 0.15 | chemotaxis index (srh-130 RNAi-treated nematodes): 0.36 | chemotaxis index (srh-214 RNAi-treated nematodes): 0.88 | chemotaxis index (srh-216 RNAi-treated nematodes): 0.65 | chemotaxis index (srh-217 RNAi-treated nematodes): 0.92 | chemotaxis index (srh-220 RNAi-treated nematodes): 0.67 | chemotaxis index (srh-222 RNAi-treated nematodes): 0.46 | chemotaxis index (srh-223 RNAi-treated nematodes): 0.23 | chemotaxis index (srh-227 RNAi-treated nematodes): 0.60 | chemotaxis index (srh-229 RNAi-treated nematodes): 0.12 | chemotaxis index (srh-233 RNAi-treated nematodes): 0.33 | chemotaxis index (srh-235 RNAi-treated nematodes): 0.51 | chemotaxis index (srh-236 RNAi-treated nematodes): 0.37 | chemotaxis index (srh-239 RNAi-treated nematodes): 0.49 | chemotaxis index (srh-241 RNAi-treated nematodes): 0.63 | chemotaxis index (srh-243 RNAi-treated nematodes): 0.00 | chemotaxis index (srh-244 RNAi-treated nematodes): 0.19 | chemotaxis index (srh-247 RNAi-treated nematodes): 0.38 | chemotaxis index (srh-250 RNAi-treated nematodes): 0.58 | chemotaxis index (srh-251 RNAi-treated nematodes): 0.32 | chemotaxis index (srh-252 RNAi-treated nematodes): 0.65 | chemotaxis index (srh-258 RNAi-treated nematodes): 0.35 | chemotaxis index (srh-261 RNAi-treated nematodes): 0.27 | chemotaxis index (srh-264 RNAi-treated nematodes): 0.46 | chemotaxis index (srh-266 RNAi-treated nematodes): 0.00 | chemotaxis index (srh-274 RNAi-treated nematodes): 0.82 | chemotaxis index (srh-275 RNAi-treated nematodes): 0.57 | chemotaxis index (srh-276 RNAi-treated nematodes): 0.45 | chemotaxis index (srh-277 RNAi-treated nematodes): 0.83 | chemotaxis index (srh-279 RNAi-treated nematodes): 0.55 | chemotaxis index (srh-281 RNAi-treated nematodes): 0.64 | chemotaxis index (srh-282 RNAi-treated nematodes): 0.73 | chemotaxis index (srh-283 RNAi-treated nematodes): 0.15 | chemotaxis index (srh-284 RNAi-treated nematodes): 0.36 | chemotaxis index (srh-291 RNAi-treated nematodes): 0.48 | chemotaxis index (srh-292 RNAi-treated nematodes): 0.52 | chemotaxis index (srh-293 RNAi-treated nematodes): 0.00 | chemotaxis index (srh-297 RNAi-treated nematodes): 0.32 | chemotaxis index (srh-298 RNAi-treated nematodes): 0.68 | chemotaxis index (srh-308 RNAi-treated nematodes): 0.39
